Laboratory results as given in PMC9504029, “Identification and Characterization of Novel Small-Molecule SMOX Inhibitors” (Medical Sciences, 2022).

Assays:
[1] = test system: SH-SY5Y neuroblastoma cells; assay: Cell viability following excitotoxic stress (glutamate), MTS assay; type: cell-based, human; conditions: 80 mM glutamate
Method: (§1) SH-SY5Y neuroblastoma cells purchased from ATCC (Manassas, VA, USA) were cultured in Dulbecco’s modified Eagle medium (DMEM) without phenol red and supplemented with 10% heat inactivated human AB serum, 4 mM L-glutamine, and 1% penicillin/streptomycin. As the oxidation of spermine by various polyamine oxidases has been documented in cell culture containing ruminant serum, such as in fetal bovine serum (FBS) and horse serum, human AB serum was used to prevent assay interference. The cells were maintained in 5% CO2 humidified atmosphere at 37 °C. Cell media was replaced every 2 days and the cells were discarded after a maximum of 15 passages.
The SH-SY5Y neuroblastoma cells were plated at a density of 1 × 10^6 cells/mL in 96-well plates (Costar #9018; clear flat bottom) and allowed to adhere overnight. Media was aspirated and the cells were then treated with low-serum culture media (containing 5% human AB serum), 80 mM of glutamate, and varying concentrations of compound. The glutamate and test compounds were added simultaneously with no pre-incubation period. Cell viability was measured at 16 h and 24 h post-treatment by a standard MTS assay (0.33 mg/mL incubated at 37 °C for 3 h). Absorbance was read at 490 nm following 3-h incubation with MTS reagent. […]

recombinant human MAO-A = biological target: T1, recombinant human MAO-A (Homo sapiens, UniProt P21397); assay: MAO-Glo assay, MAO-A; type: biochemical; conditions: read-out: % Inhibition at 20 μM ± SD, MAO-A
T1 construct: purchased Sigma-Aldrich M7316-1VL
T1 sequence (P21397 1-527): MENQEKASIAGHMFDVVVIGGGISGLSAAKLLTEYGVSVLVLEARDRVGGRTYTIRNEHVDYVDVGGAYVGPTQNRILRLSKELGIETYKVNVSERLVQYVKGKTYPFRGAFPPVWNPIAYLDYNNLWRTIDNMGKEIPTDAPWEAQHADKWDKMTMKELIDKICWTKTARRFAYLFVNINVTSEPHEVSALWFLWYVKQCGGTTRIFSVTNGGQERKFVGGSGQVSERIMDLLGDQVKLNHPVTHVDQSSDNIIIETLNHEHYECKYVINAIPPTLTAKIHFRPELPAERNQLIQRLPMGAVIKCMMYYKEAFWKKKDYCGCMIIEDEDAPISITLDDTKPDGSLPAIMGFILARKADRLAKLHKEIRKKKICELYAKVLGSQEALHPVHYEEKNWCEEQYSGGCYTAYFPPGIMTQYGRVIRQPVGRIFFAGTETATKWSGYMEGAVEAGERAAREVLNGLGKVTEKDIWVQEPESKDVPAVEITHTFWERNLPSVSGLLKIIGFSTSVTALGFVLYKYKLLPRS
Method: To determine selectivity, the compounds were tested for activity against the related FAD-dependent amine oxidase enzymes LSD1, MAO-A, and MAO-B. LSD1 activity was assessed using a commercially available assay kit (#700120, Cayman Chemical, Ann Arbor, MI, USA), in which the enzyme activity was determined by the horseradish peroxidase-catalyzed oxidation of 10-acetyl-3,7-dihydroxyphenoxazine to the highly fluorescent resorufin in response to H2O2 production. Monoamine oxidase activity was determined using recombinant human MAO-A and MAO-B (M7316-1VL & M7441-1VL, Sigma-Aldrich, St. Louis, MO, USA) and a commercially available assay kit (#V1401, MAO-Glo, Promega, Madison, WI, USA), which utilizes the MAO-catalyzed oxidation of a luciferin derivative coupled with esterase activity to produce luminescence. Fluorescent and luminescent readout was obtained using a SpectraMax M5 plate reader (Molecular Devices) equipped with SOFTmax PRO 7.0.3 software. […] Values were reported as mean % inhibition ± SD of triplicate assay wells normalized to background activity and compared to the vehicle control.

[2] = Cytotoxicity analysis, MTS assay; type: cell-based; conditions: human, SH-SY5Y neuroblastoma cells, MTS, 12 h post treatment, read-out: LC50 (dose corresponding to 50% viability)
Method: as §1
(§2) The SH-SY5Y neuroblastoma cells were plated in 96-well plates at a density of 30,000 cells/well and allowed to reach 80% confluence, followed by treatment with varying concentrations of inhibitor ranging from 0 to 10 mM for 12 h. Cell viability was assessed by standard MTS assay, in which MTS reagent was added to each well at a concentration of 0.33 mg/mL and incubated at 37 °C for 3 h. Viability was monitored and confirmed by a visual inspection of the cells. Absorbance was read at 490 nm and the absorbance values were normalized to background wells containing varying concentrations of inhibitor, cell media, and MTS reagent. Colorimetric readout was obtained using a SpectraMax M5 plate reader (Molecular Devices) equipped with SOFTmax PRO 7.0.3 software.

[3] = test system: SH-SY5Y neuroblastoma cells; assay: Cytotoxicity analysis, MTS assay; type: cell-based; conditions: doses below 1 mM
Method: as §1, §2

SH-SY5Y cells = assay: ROS production following acute excitotoxic stress, CM-H2DCFDA; type: cell-based, human; conditions: 8 mM glutamate, 1 h, p < 0.0001
Method: To measure intracellular ROS production following acute excitotoxic stress, a CM-H2DCFDA (Invitrogen) probe was used. The SH-SY5Y cells were incubated in the presence of dichlorodihydrofluorescein diacetate (CM-H2DCFDA, Invitrogen), 20 µM in HBSS, at 37 °C for 30 min. The cells were then pelleted and washed with HBSS buffer (without phenol red, magnesium, or calcium). Phosphate buffer was not used to prevent the formation of polyamine–phosphate complexes. The cells were then resuspended in 96-well plates (Greiner #655086; black walled, cleat flat bottom) at a concentration of 1 × 10^6 cells/mL in HBSS containing 0–100 µM of inhibitor and 8 mM of glutamate. Dichlorodihydrofluorescein (DCF) fluorescence was monitored over 1 h (ex 488 nm, em 530 nm). The increase in fluorescence was reported as the % activity of control wells in the absence of the inhibitor. Fluorescent readout was obtained using a SpectraMax M5 plate reader (Molecular Devices) equipped with SOFTmax PRO 7.0.3 software. All test compounds were assessed for fluorescent activity at 530 nm prior to experimentation. The statistical analysis was conducted in GraphPad Prism 9.3 software (Graph-Pad, San Diego, California) using a one-way ANOVA with multiple comparisons (α = 0.05).

## Cc1cc([C@H](O)CNCCCNC(=N)N)cc(C)c1O [Compound 6]
[1]; 24 h, 1 mM compound, p = 0.0001 vs vehicle, p = 0.0003 vs MDL 72527
  Cell viability vs vehicle control and MDL 72527: significantly increased cell viability
[1]; Homo sapiens, SH-SY5Y, 16 h, 100 µM compound, vehicle 26.5%, not statistically significant
  viability at 100 µM: 48.3%
Recombinant human MAO-A
  inhibition at 20 µM: -6 ± 2.1%
[2]
  CC50 at 12 h: 5.8 mM
[3]
  Toxicity after 12-h exposure: did not produce significant toxicity
SH-SY5Y cells; 10 µM compound
  Production of ROS vs vehicle control: significantly decreased the production of ROS
SH-SY5Y cells; 50 µM compound, p = 0.0004 vs 10 µM
  Production of ROS vs vehicle control: significantly decreased the production of ROS
